Source: patent publication US20250073255A1, “USE OF FA-TYPE LIPID COMPOUNDS IN PREPARATION OF NUCLEIC ACID DELIVERY REAGENT AND RELATED PRODUCT” (BEIJING BAISHIKANG PHARMACEUTICAL TECHNOLOGY (BSJPHARMA) …, priority 2021, published 2025)

Test system: C57BL/6 male mice
Experiment: In vivo delivery study of lipid nucleic acid mixture (oral gavage, RT-qPCR of PGY-sRNA-26 in tissues)
Set-up: species or system mouse
Settings: for oral delivery of single-stranded sRNA nucleic acids into mouse blood / oral delivery of single-stranded sRNA nucleic acids into mouse brain tissue / oral delivery of single-stranded sRNA nucleic acids into mouse femur / oral delivery of single-stranded sRNA nucleic acids into mouse heart tissue / oral delivery of single-stranded sRNA nucleic acids into mouse intestinal tissue / oral delivery of single-stranded sRNA nucleic acids into mouse kidney tissue / oral delivery of single-stranded sRNA nucleic acids into mouse liver tissue / oral delivery of single-stranded sRNA nucleic acids into mouse lung tissue / oral delivery of single-stranded sRNA nucleic acids into mouse pancreatic tissue / oral delivery of single-stranded sRNA nucleic acids into mouse spleen tissue / oral delivery of single-stranded sRNA nucleic acids into mouse stomach tissue: 100 μg lipid:10 nmol PGY-sRNA-26, sampled after 12 hours; for oral delivery of single-stranded sRNA nucleic acids into mouse heart tissue: vs free uptake group; for oral delivery of single-stranded sRNA nucleic acids into mouse intestinal tissue: intestine; for oral delivery of single-stranded sRNA nucleic acids into mouse pancreatic tissue: pancreas; for overall delivery efficacy: delivering nucleic acids into each tissue and blood tested: 100 μg lipid:10 nmol PGY-sRNA-26, all tissues and blood tested
Procedure: 10 nmol of small RNA (as shown in Table 2) was dissolved in 400 μl of DEPC-treated water in a glass tube, 10 μl of the corresponding lipid stock solution was added such that the lipid mass in the system was 100 μg. The mixture was mixed thoroughly, heated in a 90° C. water bath for 15 minutes, and then cooled naturally to obtain the lipid nucleic acid mixture of lipid and small RNA.
C57BL/6 male mice, approximately 6 weeks old, weighing […], were obtained from Beijing Vital River Laboratory Animal Technology Co., Ltd. The mice were housed in the SPF-grade animal facility at the Animal Center of the Institute of Basic Medical Sciences, Chinese Academy of Medical Sciences. The mice were fasted for 12 hours before gavage administration.
The lipid nucleic acid mixture was prepared following the method described in Example 2. The resultant lipid nucleic acid mixture was orally administered to each mouse at a dose of 100 μg lipid:10 nmol single-stranded 3-methylated small RNA PGY-sRNA-26.
• 1) Blank group (n=4): mice were administered with 500 μl saline by gavage, this group served as a blank control; • 2) Free uptake group (n=4): mice were directly administered with small RNA PGY-sRNA-26 solution (10 nmol/mouse, 500 l) by gavage, this group served as a negative control; • 3) Lipid-treated group (n=4): mice were administered with 500 μl lipid nucleic acid mixture prepared in step 2 by gavage.
After 12 hours of gavage administration, 500 μl blood from the eyeball of each mouse was sampled, added to 1.5 ml Trizol Reagent LS (purchased from Invitrogen), thoroughly mixed for lysis. 3 ml of Trizol Reagent LSwas added to tissue samples and homogenized for complete lysis, wherein the sampled tissues include heart, liver, spleen, lung, kidney, stomach, intestine, brain, blood, femur, pancreas. RNAwas extracted from 1 ml of the blood or the tissue lysate following the steps below: • Centrifuge at 4° C., 12,000 rpm for 5 min, discard the precipitate, transfer Trizol to a new centrifuge tube; • Add chloroform at 200 μL chloroform/mL Trizol, shake well, stand at room temperature for 5 min; • Centrifuge at 4° C., 12,000 rpm for 15 min; • Take the upper aqueous phase to another centrifuge tube, add isopropanol at 0.4 mL isopropanol/mL Trizol, mix well, and stand at low temperature for 10-20 min; • Centrifuge at 4° C., 12,000 rpm for 15 min, discard the supernatant, RNA precipitated at the bottom of the tube; • Add 1 mL of 75% ethanol, gently shake the centrifuge tube, suspend the precipitate; • Centrifuge at 4° C., 12,000 rpm for 15 min, discard the supernatant, add 1 mL of 75% ethanol, gently shake the centrifuge tube, suspend the precipitate; • Centrifuge at 4° C., 12,000 rpm for 15 min, discard the supernatant, air-dry at room temperature, dissolve RNA samples in 50 μL RNase-free H2O, measure OD value to quantify RNA concentration. 3.3 Reverse Transcription of sRNA to cDNA:
sRNA was reverse transcribed to cDNA using the High-Capacity cDNA Reverse Transcription Kit (Applied Biosystems, cat. no. 4368813) by stem-loop method (see, e.g., “Real-time quantification of microRNAs by stem-loop RT-PCR, Nucleic Acids Res. 2005 Nov. 27; 33(20):e179”, incorporated herein by reference). The reverse transcription system is as follows: Template RNA (200 ng/μL) 10 μL, 10×RT Buffer 2.0 μL, 25×dNTP Mix (100 mM) 0.8 μL, U6 RT stem-loop primer (10 μM) 2.0 μL, PGY-sRNA-26 RT stem-loop primer (10 μM) 2.0 μL, MultiScribe™ Reverse Transcriptase (50 U/μL) 1.0 μL, RNAse Inhibitor (40 U/μL) 1.0 μL, nuclease-free H2O 1.2 μL. After transient centrifugation, the reverse transcription system was placed in a PCR machine with the following reaction conditions: (1) 25° C., 10 min; (2) 37° C., 120 min; (3) 85° C., 5 min; (4) 4° C., stop reaction. After the reaction, add 20 μL RNAse-free ddH2O, adjust the final volume to 40 μL. […]

SMILES	oral delivery of single-stranded sRNA nucleic acids into mouse blood	oral delivery of single-stranded sRNA nucleic acids into mouse brain tissue	oral delivery of single-stranded sRNA nucleic acids into mouse femur	oral delivery of single-stranded sRNA nucleic acids into mouse heart tissue	oral delivery of single-stranded sRNA nucleic acids into mouse intestinal tissue	oral delivery of single-stranded sRNA nucleic acids into mouse kidney tissue	oral delivery of single-stranded sRNA nucleic acids into mouse liver tissue	oral delivery of single-stranded sRNA nucleic acids into mouse lung tissue	oral delivery of single-stranded sRNA nucleic acids into mouse pancreatic tissue	oral delivery of single-stranded sRNA nucleic acids into mouse spleen tissue	oral delivery of single-stranded sRNA nucleic acids into mouse stomach tissue	overall delivery efficacy: delivering nucleic acids into each tissue and blood tested
CCCCC/C=C\C/C=C\CCCCCCCCOC(=O)CCCCCCCCCCCCCCCCCCC [Lipid 812, [(9Z,12Z)-octadeca-9,12-dienyl] icosanoate]	can effectively orally deliver	can effectively orally deliver	can effectively orally deliver	can effectively orally deliver	can effectively orally deliver	can effectively orally deliver	can effectively orally deliver	can effectively orally deliver	can effectively orally deliver	can effectively orally deliver	can effectively orally deliver	–
CC/C=C/CC1C(=O)CCC1CC(=O)OC (stereo not shown) [Lipid 501]	can effectively orally deliver	can effectively orally deliver	–	can effectively orally deliver	can effectively orally deliver	can effectively orally deliver	can effectively orally deliver	can effectively orally deliver	–	can effectively orally deliver	can effectively orally deliver	best delivery efficacy
C=C(C)CCOC(=O)CCCCCCCCCCCCCCCCCCC [Lipid 814, 3-methylbut-3-enyl icosanoate]	can effectively orally deliver	can effectively orally deliver	can effectively orally deliver	can effectively orally deliver	can effectively orally deliver	can effectively orally deliver	can effectively orally deliver	can effectively orally deliver	can effectively orally deliver	can effectively orally deliver	can effectively orally deliver	–
C=C(CC(=O)O)C(=O)O [Lipid 626, 2-methylidenebutanedioic acid]	can effectively orally deliver	can effectively orally deliver	can effectively orally deliver	can effectively orally deliver	can effectively orally deliver	can effectively orally deliver	can effectively orally deliver	can effectively orally deliver	–	–	–	–
CC(CC(=O)O)C(=O)O (stereo not shown) [Lipid 608, 2-methylbutanedioic acid]	–	–	can effectively orally deliver	can effectively orally deliver	–	–	–	can effectively orally deliver	–	can effectively orally deliver	can effectively orally deliver	–
CCCC/C=C\CCCCCCCC(=O)OCCCCCCCCCCCCCCCCCCCCCC [Lipid 817, docosyl (Z)-tetradec-9-enoate]	can effectively orally deliver	can effectively orally deliver	can effectively orally deliver	can effectively orally deliver	can effectively orally deliver	can effectively orally deliver	can effectively orally deliver	can effectively orally deliver	can effectively orally deliver	can effectively orally deliver	can effectively orally deliver	–
CC=CC(C)=O [Lipid 621]	can effectively orally deliver	can effectively orally deliver	can effectively orally deliver	can effectively orally deliver	can effectively orally deliver	–	can effectively orally deliver	can effectively orally deliver	–	–	can effectively orally deliver	–
CCCCC/C=C\C/C=C\C/C=C\C/C=C\CCCC(=O)NCCN(CC)CC [Lipid 810, (5Z,8Z,11Z,14Z)-N-[2-(diethylamino)ethyl]icosa-5,8,11,14-tetraenamide]	can effectively orally deliver	can effectively orally deliver	can effectively orally deliver	can effectively orally deliver	can effectively orally deliver	can effectively orally deliver	can effectively orally deliver	can effectively orally deliver	can effectively orally deliver	can effectively orally deliver	can effectively orally deliver	best delivery efficacy
